According to ChEMBL document CHEMBL4138123, “Design, synthesis and biological evaluation of novel pyrazolochalcones as potential modulators of PI3K/Akt/mTOR pathway and inducers of apoptosis in breast cancer cells” (Eur J Med Chem, 2017):

What was measured:
TK-10 [1] = assay: Cytotoxicity against human TK10 cells assessed as cell growth at 0.1 uM after 48 hrs by sulforhodamine B assay relative to control; format: functional; details: TK-10, 48 h, read-out: Activity
CCRF-CEM = assay: Cytotoxicity against human CCRF-CEM cells assessed as cell growth at 0.01 uM after 48 hrs by sulforhodamine B assay relative to control; format: functional; details: read-out: Activity
OVCAR-4 [2] = assay: Cytotoxicity against human OVCAR4 cells assessed as cell growth at 1 uM after 48 hrs by sulforhodamine B assay relative to control; format: functional; details: OVCAR-4, 48 h, read-out: Activity
IGROV-1 = assay: Cytotoxicity against human IGROV1 cells assessed as cell growth at 1 uM after 48 hrs by sulforhodamine B assay relative to control; format: functional; details: IGROV-1, 48 h, read-out: Activity
UO-31 = assay: Cytotoxicity against human UO31 cells assessed as cell growth at 0.1 uM after 48 hrs by sulforhodamine B assay relative to control; format: functional; details: UO-31, 48 h, read-out: Activity
U-251 = assay: Cytotoxicity against human U251 cells assessed as cell growth at 0.01 uM after 48 hrs by sulforhodamine B assay relative to control; format: functional; details: U-251, 48 h, read-out: Activity
MDA-MB-468 = assay: Cytotoxicity against human MDA-MB-468 cells assessed as cell growth at 10 uM after 48 hrs by sulforhodamine B assay relative to control; format: functional; details: MDA-MB-468, 48 h, read-out: Activity
K562 = assay: Cytotoxicity against human K562 cells assessed as cell growth at 0.01 uM after 48 hrs by sulforhodamine B assay relative to control; format: functional; details: K562, 48 h, read-out: Activity
NCI-H226 [3] = assay: Cytotoxicity against human NCI-H226 cells assessed as cell growth at 1 uM after 48 hrs by sulforhodamine B assay relative to control; format: functional; details: NCI-H226, 48 h, read-out: Activity
OVCAR-3 = assay: Cytotoxicity against human OVCAR3 cells assessed as cell growth at 100 uM after 48 hrs by sulforhodamine B assay relative to control; format: functional; details: OVCAR-3, 48 h, read-out: Activity
MOLT-4 = assay: Cytotoxicity against human MOLT4 cells assessed as cell growth at 0.1 uM after 48 hrs by sulforhodamine B assay relative to control; format: functional; details: MOLT-4, 48 h, read-out: Activity
MDA-MB-231 = assay: Cytotoxicity against human MDA-MB-231 cells assessed as growth inhibition after 48 hrs by MTT assay; format: functional, cell-based; details: MDA-MB-231, 48 h
SF-268 = assay: Cytotoxicity against human SF268 cells assessed as cell growth at 0.01 uM after 48 hrs by sulforhodamine B assay relative to control; format: functional; details: SF-268, 48 h, read-out: Activity
OVCAR-4 [4] = assay: Cytotoxicity against human OVCAR4 cells assessed as cell growth at 10 uM after 48 hrs by sulforhodamine B assay relative to control; format: functional; details: OVCAR-4, 48 h, read-out: Activity
OVCAR-8 [5] = assay: Cytotoxicity against human OVCAR8 cells assessed as cell growth at 0.1 uM after 48 hrs by sulforhodamine B assay relative to control; format: functional; details: OVCAR-8, 48 h, read-out: Activity
SK-MEL-28 = assay: Cytotoxicity against human SK-MEL-28 cells assessed as cell growth at 10 uM after 48 hrs by sulforhodamine B assay relative to control; format: functional; details: SK-MEL-28, 48 h, read-out: Activity
HCT-15 [6] = assay: Cytotoxicity against human HCT15 cells assessed as cell growth at 0.01 uM after 48 hrs by sulforhodamine B assay relative to control; format: functional; details: HCT-15, 48 h, read-out: Activity
SNB-19 = assay: Cytotoxicity against human SNB19 cells assessed as cell growth at 0.1 uM after 48 hrs by sulforhodamine B assay relative to control; format: functional; details: SNB-19, 48 h, read-out: Activity
HL-60(TB) = assay: Cytotoxicity against human HL-60(TB) cells assessed as growth inhibition after 48 hrs by sulforhodamine B assay; format: functional; details: HL-60, 48 h
HCC 2998 = assay: Cytotoxicity against human HCC2998 cells assessed as growth inhibition after 48 hrs by sulforhodamine B assay; format: functional; details: HCC 2998, 48 h
HCT-15 [7] = assay: Cytotoxicity against human HCT15 cells assessed as growth inhibition after 48 hrs by sulforhodamine B assay; format: functional; details: HCT-15, 48 h
MCF7 [8] = assay: Cytotoxicity against human MCF7 cells assessed as growth inhibition after 48 hrs by sulforhodamine B assay; format: functional; details: MCF7, 48 h
OVCAR-8 [9] = assay: Cytotoxicity against human OVCAR8 cells assessed as cell growth at 0.01 uM after 48 hrs by sulforhodamine B assay relative to control; format: functional; details: OVCAR-8, 48 h, read-out: Activity
TK-10 [10] = assay: Cytotoxicity against human TK10 cells assessed as cell growth at 100 uM after 48 hrs by sulforhodamine B assay relative to control; format: functional; details: TK-10, 48 h, read-out: Activity
NCI/ADR-RES = assay: Cytotoxicity against human NCI/ADR-RES cells assessed as cell growth at 100 uM after 48 hrs by sulforhodamine B assay relative to control; format: functional; details: read-out: Activity
HT-29 = assay: Cytotoxicity against human HT-29 cells assessed as growth inhibition after 48 hrs by sulforhodamine B assay; format: functional; details: HT-29, 48 h
MCF7 [11] = assay: Cytotoxicity against human MCF7 cells assessed as cell growth at 0.01 uM after 48 hrs by sulforhodamine B assay relative to control; format: functional; details: MCF7, 48 h, read-out: Activity
SF-539 = assay: Cytotoxicity against human SF539 cells assessed as growth inhibition after 48 hrs by sulforhodamine B assay; format: functional; details: SF-539, 48 h
NCI-H226 [12] = assay: Cytotoxicity against human NCI-H226 cells assessed as cell growth at 10 uM after 48 hrs by sulforhodamine B assay relative to control; format: functional; details: NCI-H226, 48 h, read-out: Activity
A549 = assay: Cytotoxicity against human A549/ATCC cells assessed as growth inhibition after 48 hrs by sulforhodamine B assay; format: functional; details: A549, 48 h
SK-MEL-5 = assay: Cytotoxicity against human SK-MEL-5 cells assessed as cell growth at 1 uM after 48 hrs by sulforhodamine B assay relative to control; format: functional; details: SK-MEL-5, 48 h, read-out: Activity
NCI-H522 = assay: Cytotoxicity against human NCI-H522 cells assessed as cell growth at 100 uM after 48 hrs by sulforhodamine B assay relative to control; format: functional; details: NCI-H522, 48 h, read-out: Activity
OVCAR-8 [13] = assay: Cytotoxicity against human OVCAR8 cells assessed as cell growth at 1 uM after 48 hrs by sulforhodamine B assay relative to control; format: functional; details: OVCAR-8, 48 h, read-out: Activity
UACC-257 = assay: Cytotoxicity against human UACC257 cells assessed as cell growth at 10 uM after 48 hrs by sulforhodamine B assay relative to control; format: functional; details: UACC-257, 48 h, read-out: Activity
UACC-62 = assay: Cytotoxicity against human UACC62 cells assessed as growth inhibition after 48 hrs by sulforhodamine B assay; format: functional; details: UACC-62, 48 h

COc1cc2c(cc1OC)C(=O)/C(=C/c1cc(-c3ccc4c(c3)OCO4)n[nH]1)C2 gave a growth at 0.1 µM (TK-10 [1]) of 88%, a growth at 0.01 µM (CCRF-CEM) of 97% and a growth at 1 µM (OVCAR-4 [2]) of 57%. For the same compound, the growth at 1 µM (IGROV-1) was 86%, the growth at 0.1 µM (UO-31) was 85% and the growth at 0.01 µM (U-251) was 97%. It also gave a growth at 10 µM (MDA-MB-468) of -87%, a growth at 0.01 µM (K562) of 97% and a growth at 1 µM (NCI-H226 [3]) of 79%. The growth at 100 µM (OVCAR-3) was -90%, the growth at 0.1 µM (MOLT-4) was 99% and the IC50 (MDA-MB-231) was 1.6 µM. It also gave a growth at 0.01 µM (SF-268) of 95%, a growth at 10 µM (OVCAR-4 [4]) of -96% and a growth at 0.1 µM (OVCAR-8 [5]) of 98%. The growth at 10 µM (SK-MEL-28) was -92%, the growth at 0.01 µM (HCT-15 [6]) was 95% and the growth at 0.1 µM (SNB-19) was 98%. For the same compound, the GI50 (HL-60(TB)) was 2.07 µM, the LC50 (HL-60(TB)) was over 100 µM and the TGI (HL-60(TB)) was 5.59 µM. For the same compound, the GI50 (HCC 2998) was 1.88 µM, the LC50 (HCC 2998) was 6.29 µM and the TGI (HCC 2998) was 3.44 µM. For the same compound, the GI50 (HCT-15 [7]) was 1.12 µM, the LC50 (HCT-15 [7]) was 7.07 µM and the TGI (HCT-15 [7]) was 2.81 µM. It also gave a GI50 (MCF7 [8]) of 0.33 µM, an LC50 (MCF7 [8]) of 4.52 µM and a TGI (MCF7 [8]) of 1.42 µM. For the same compound, the growth at 0.01 µM (OVCAR-8 [9]) was 98%, the growth at 100 µM (TK-10 [10]) was -95% and the growth at 100 µM (NCI/ADR-RES) was -40%. For the same compound, the GI50 (HT-29) was 1.45 µM, the LC50 (HT-29) was 6.63 µM and the TGI (HT-29) was 3.09 µM. For the same compound, the growth at 0.01 µM (MCF7 [11]) was 96%, the GI50 (SF-539) was 1.27 µM and the LC50 (concentration killing 50% of cells) (SF-539) was 5.22 µM. The TGI (SF-539) was 2.57 µM, the growth at 10 µM (NCI-H226 [12]) was -72% and the GI50 (A549) was 1.96 µM. It also gave an LC50 (concentration giving 50% net cell kill) (A549) of 37.1 µM, a TGI (A549) of 5.45 µM and a growth at 1 µM (SK-MEL-5) of 92%. The growth at 100 µM (NCI-H522) was -92%, the growth at 1 µM (OVCAR-8 [13]) was 84% and the growth at 10 µM (UACC-257) was -96%. The GI50 (UACC-62) was 1.63 µM, the LC50 (UACC-62) was 5.66 µM and the TGI (UACC-62) was 3.04 µM.
In the case of COc1ccc(-c2cc(/C=C/C(=O)c3ccc(N)cc3)[nH]n2)cc1OC, the growth at 0.1 µM (TK-10 [1]) is reported as 100%, the growth at 0.01 µM (CCRF-CEM) is reported as 97% and the growth at 1 µM (OVCAR-4 [2]) is reported as 69%. The growth at 1 µM (IGROV-1) was 100%, the growth at 0.1 µM (UO-31) was 99% and the growth at 0.01 µM (U-251) was 95%. For the same compound, the growth at 10 µM (MDA-MB-468) was -65%, the growth at 0.01 µM (K562) was 99% and the growth at 1 µM (NCI-H226 [3]) was 86%. It also gave a growth at 100 µM (OVCAR-3) of -99%, a growth at 0.1 µM (MOLT-4) of 106% and an IC50 (MDA-MB-231) of 2.2 µM. The growth at 0.01 µM (SF-268) was 100%, the growth at 10 µM (OVCAR-4 [4]) was 24% and the growth at 0.1 µM (OVCAR-8 [5]) was 99%. It also gave a growth at 10 µM (SK-MEL-28) of -29%, a growth at 0.01 µM (HCT-15 [6]) of 93% and a growth at 0.1 µM (SNB-19) of 90%. It also gave a GI50 (HL-60(TB)) of 3.45 µM, an LC50 (HL-60(TB)) of over 100 µM and a TGI (HL-60(TB)) of over 100 µM. It also gave a GI50 (HCC 2998) of 2.02 µM, an LC50 (HCC 2998) of 7.24 µM and a TGI (HCC 2998) of 3.83 µM. It also gave a GI50 (HCT-15 [7]) of 1.7 µM, an LC50 (HCT-15 [7]) of 33 µM and a TGI (HCT-15 [7]) of 5.37 µM. The GI50 (MCF7 [8]) was 2.28 µM, the LC50 (MCF7 [8]) was 71.2 µM and the TGI (MCF7 [8]) was 8.48 µM. The growth at 0.01 µM (OVCAR-8 [9]) was 98%, the growth at 100 µM (TK-10 [10]) was -98% and the growth at 100 µM (NCI/ADR-RES) was 2%. It also gave a GI50 (HT-29) of 2.6 µM, an LC50 (HT-29) of 58.9 µM and a TGI (HT-29) of 6.91 µM. It also gave a growth at 0.01 µM (MCF7 [11]) of 89%, a GI50 (SF-539) of 1.73 µM and an LC50 (concentration killing 50% of cells) (SF-539) of 7.19 µM. For the same compound, the TGI (SF-539) was 3.53 µM, the growth at 10 µM (NCI-H226 [12]) was -13% and the GI50 (A549) was 2.75 µM. For the same compound, the LC50 (concentration giving 50% net cell kill) (A549) was 45.2 µM, the TGI (A549) was 10.1 µM and the growth at 1 µM (SK-MEL-5) was 94%. It also gave a growth at 100 µM (NCI-H522) of -92%, a growth at 1 µM (OVCAR-8 [13]) of 93% and a growth at 10 µM (UACC-257) of 39%. The GI50 (UACC-62) was 3.11 µM, the LC50 (UACC-62) was 39.6 µM and the TGI (UACC-62) was 10.9 µM.
